According to paper PMC10467108, “Of Seven New K^+ Channel Inhibitor Peptides of Centruroides bonito, α-KTx 2.24 Has a Picomolar Affinity for Kv1.2” (Toxins, 2023):
“Also recorded” adds a separate entry of the source. Like-named read-outs stand apart in the source and are kept apart here. Where a SMILES comes first, the peptide text is derived from it. Bridges are numbered along the chain shown (N, C = ends).

What was measured:
Assay type in all cases: cell-based
hKv1.2 = molecular target: T1, hKv1.2 (Homo sapiens, UniProt P16389); experiment: Whole-cell patch-clamp of Kv1.2 currents in transiently transfected CHO cells
T1 construct: GFP (C); host or cells: CHO cells, transient transfection (Lipofectamine 2000)
Experimental: (§1) Macroscopic Kv1.1 and Kv1.2 currents were measured in transiently transfected CHO cells. For Kv1.3 current recording, human T lymphocytes were activated by Phytohemagglutinin A (PHA) to increase Kv1.3 channel expression, and micro-pipettes were filled with Ca^2+-free solution to prevent KCa3.1 channel activation. K^+ currents were evoked by applying 15-ms-long depolarization pulses to +50 mV from a holding potential of −120 mV except for Kv1.2, as it has highly variable activation kinetics; therefore, 15–500 ms-long pulses were applied to maximize the open probability of Kv1.2 channel. CboK peptide toxins were dissolved in a freshly prepared extracellular solution and applied to the whole-cell patch-clamped cells using a micro perfusion system at 200 μL/min flow rate.
(§2) CHO cells were transiently transfected by using Lipofectamine 2000 kit (Invitrogen, Carlsbad, CA, USA), as per the manufacturer’s protocol with vector pCMV6-AC-GFP (cat# RG211000 and RC222200; OriGene Technologies, Rockville, MD, USA) encoding hKv1.1 (hKCNA1 gene) or hKv1.2 (hKCNA2 gene) ion channels. Cells were grown under standard conditions in an incubator at 37 °C and 5% CO2 for 24 h. GFP-positive transfected cells were identified by utilizing a Nikon TMS fluorescence microscope (Nikon, Tokyo, Japan) using bandpass filters of 455–495 nm and 515–555 nm for excitation and emission, respectively.
(§3) The patch-clamp technique was used for measuring whole-cell currents in voltage-clamped mode using standard protocols. Electrophysiological recordings were acquired by using Multiclamp 700B amplifier connected to a personnel computer with an Axon Digidata1440 digitizer (Molecular Devices, Sunnyvale, CA, USA). Pipettes were pulled from GC150F-15 borosilicate capillaries (Harvard Apparatus, Kent, UK) having 3−5 MΩ tip resistance in the bath solution. All current recordings were carried out at room temperature (20−25 °C) and only those currents were recorded and subjected to analyses when the leak current at holding potential was <5% of peak current at the test potential. Current traces were lowpass-filtered by utilizing the built-in analog four-pole Bessel filters of the amplifiers and were sampled at 20 kHz which is at least twice the filter cut-off frequency. A gravity-driven perfusion system was used to perfuse the cells with control and test solutions and excess fluid was removed continuously through vacuum suction. The extracellular solution (bath solution) contained 145 mM NaCl, 5.5 mM glucose, 5 mM KCl, 2.5 mM CaCl2, 1 mM MgCl2, and 10 mM HEPES, having pH of 7.35 and an osmolarity between 302 and 308 mOsM/L. Toxins were dissolved in bath solution at different molar concentrations and supplemented with 0.1 mg/mL of bovine serum albumin BSA (Sigma-Aldrich, Budapest, Hungary). The intracellular solution (pipette filling) was comprised of 140 mM KF, 2 mM MgCl2, 1 mM CaCl2, 10 mM HEPES, and 11 mM EGTA, with a pH of 7.22 and an osmolarity of ~295 mOsM/L.
(§4) Generally, to evoke the Kv1.xcurrents, 15-ms-long depolarization pulses to +50 mV from a holding potential of −120 mV were applied, and the current traces were recorded after every 15 s. However, in the case of Kv1.2, due to its variable activation kinetics, the duration of the depolarization pulse was set between 15 and 500 ms to attain the saturated peak current.

hKv1.1 = molecular target: T2, hKv1.1 (Homo sapiens, UniProt Q09470); experiment: Whole-cell patch-clamp of Kv1.1 currents in transiently transfected CHO cells
T2 construct: host or cells: CHO cells, transient transfection (Lipofectamine 2000)
Experimental: as §1, §2, §3, §4

Kv1.3 = molecular target: T3, Kv1.3 (Homo sapiens, UniProt P22001); experiment: Whole-cell patch-clamp of Kv1.3 currents in PHA-activated human T lymphocytes; conditions: for Hill coefficient H, Kv1.3 block: Hill fit of isochronal RCF (4 ms)
T3 construct: endogenous in cells
Experimental: as §1
Isochronal RCF data points obtained this way (isochronal RCF = I4ms/I4ms,0 where I4ms,0 and I4ms are the currents at 4 ms time point in the absence and presence of CboK peptides, respectively) at different toxin concentrations were fitted with the Hill equation to obtain concentration–response curves as shown in Figure 6H.
Human peripheral venous blood was acquired from anonymous healthy volunteers from the blood bank. Blood samples were collected by having approval from the Ethical Committee of the Hungarian Medical Research Council (36255-6/2017/EKU). PBMCs were separated by Histopaque 1077 (Sigma-Aldrich, Budapest, Hungary) separation technique, and isolated cells, at the density of 5 × 10^5 cells, were cultured in RPMI 1640 media (Gibco, Grand Island, NY, USA) supplemented with 10% FBS (Sigma-Aldrich, Budapest, Hungary), 2 mM L-glutamine, […], and […] penicillin in a humidified incubator at 37 °C and 5% CO2 for 3–6 days. A measure of 2, 5, or 10 μg/mL of Phytohemagglutinin A (PHA) (Sigma-Aldrich, Budapest, Hungary) was added in cultured cells to activate the PBMCs and upregulate the Kv1.3 expression.
as §3, with “suction.” for “suction. The extracellular solution (bath solution) contained 145 mM NaCl, 5.5 mM glucose, 5 mM KCl, 2.5 mM CaCl2, 1 mM MgCl2, and 10 mM HEPES, having pH of 7.35 and an osmolarity between 302 and 308 mOsM/L. Toxins were dissolved in bath solution at different molar concentrations and supplemented with 0.1 mg/mL of bovine serum albumin BSA (Sigma-Aldrich, Budapest, Hungary). The intracellular solution (pipette filling) was comprised of 140 mM KF, 2 mM MgCl2, 1 mM CaCl2, 10 mM HEPES, and 11 mM EGTA, with a pH of 7.22 and an osmolarity of ~295 mOsM/L.”

[1] = Hill fit of RCF vs toxin concentration, n ≥ 3

T1 sequence (P16389 whole entry): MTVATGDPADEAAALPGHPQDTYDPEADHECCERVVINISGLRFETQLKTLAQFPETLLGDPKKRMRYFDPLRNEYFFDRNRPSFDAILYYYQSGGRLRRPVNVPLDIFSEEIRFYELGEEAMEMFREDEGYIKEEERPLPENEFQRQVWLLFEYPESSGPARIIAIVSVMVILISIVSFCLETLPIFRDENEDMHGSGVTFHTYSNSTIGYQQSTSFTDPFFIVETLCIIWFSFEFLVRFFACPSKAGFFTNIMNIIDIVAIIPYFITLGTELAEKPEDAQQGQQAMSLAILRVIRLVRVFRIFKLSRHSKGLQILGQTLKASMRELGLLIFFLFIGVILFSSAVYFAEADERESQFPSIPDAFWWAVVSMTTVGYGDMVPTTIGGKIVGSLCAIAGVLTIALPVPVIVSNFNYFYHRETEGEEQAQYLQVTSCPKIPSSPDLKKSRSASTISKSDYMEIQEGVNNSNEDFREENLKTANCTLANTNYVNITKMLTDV
T2 sequence (Q09470 whole entry): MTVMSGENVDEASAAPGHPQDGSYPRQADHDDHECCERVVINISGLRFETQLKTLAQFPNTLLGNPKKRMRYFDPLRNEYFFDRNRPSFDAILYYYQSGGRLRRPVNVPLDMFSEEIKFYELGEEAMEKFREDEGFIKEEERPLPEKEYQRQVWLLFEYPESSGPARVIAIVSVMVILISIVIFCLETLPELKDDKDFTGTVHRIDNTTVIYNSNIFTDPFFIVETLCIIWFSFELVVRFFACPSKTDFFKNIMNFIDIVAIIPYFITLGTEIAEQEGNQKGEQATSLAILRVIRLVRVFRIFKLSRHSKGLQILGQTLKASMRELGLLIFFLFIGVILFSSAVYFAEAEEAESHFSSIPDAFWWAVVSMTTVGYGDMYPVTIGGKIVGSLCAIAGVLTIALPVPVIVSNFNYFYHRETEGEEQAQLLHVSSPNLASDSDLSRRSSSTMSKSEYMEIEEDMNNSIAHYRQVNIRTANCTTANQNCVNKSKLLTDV
T3 sequence (P22001 whole entry): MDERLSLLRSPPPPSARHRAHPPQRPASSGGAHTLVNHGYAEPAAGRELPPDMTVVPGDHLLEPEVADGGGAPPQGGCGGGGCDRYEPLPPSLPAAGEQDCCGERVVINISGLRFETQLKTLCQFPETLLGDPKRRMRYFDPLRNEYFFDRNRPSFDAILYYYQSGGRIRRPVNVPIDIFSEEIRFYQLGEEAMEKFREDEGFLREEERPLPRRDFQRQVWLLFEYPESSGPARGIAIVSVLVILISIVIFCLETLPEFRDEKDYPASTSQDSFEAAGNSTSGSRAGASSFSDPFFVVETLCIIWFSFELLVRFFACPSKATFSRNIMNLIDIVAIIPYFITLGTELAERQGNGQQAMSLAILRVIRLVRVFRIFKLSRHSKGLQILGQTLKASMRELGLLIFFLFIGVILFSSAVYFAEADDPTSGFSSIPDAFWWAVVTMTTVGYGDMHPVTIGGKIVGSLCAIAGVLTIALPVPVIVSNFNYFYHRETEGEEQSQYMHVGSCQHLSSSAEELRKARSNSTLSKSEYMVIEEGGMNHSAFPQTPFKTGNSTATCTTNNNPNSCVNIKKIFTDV

SMILES: CC[C@H](C)[C@@H]1NC(=O)[C@@H]2CSSC[C@H](NC(=O)[C@H](C)NC(=O)[C@@H](NC(=O)[C@@H](N)CC(N)=O)C(C)C)C(=O)N[C@@H](C(C)C)C(=O)N[C@@H](Cc3c[nH]cn3)C(=O)N[C@@H](CCCNC(=N)N)C(=O)N[C@@H]([C@@H](C)O)C(=O)N[C@H]3CSSC[C@H](NC(=O)[C@H](CCCCN)NC(=O)[C@H](CCCNC(=N)N)NC(=O)[C@H](CC(N)=O)NC1=O)C(=O)N[C@@H](CC(N)=O)C(=O)N[C@H](C(=O)N[C@@H](Cc1ccc(O)cc1)C(=O)N1CCC[C@H]1C(=O)N[C@@H](Cc1c[nH]cn1)C(=O)O)CSSC[C@H](NC(=O)[C@H](CC(N)=O)NC(=O)[C@H](CO)NC(=O)[C@H](CC(=O)O)NC3=O)C(=O)N[C@@H](CCCCN)C(=O)N[C@@H](CCCNC(=N)N)C(=O)N[C@@H](CC(N)=O)C(=O)NCC(=O)N[C@@H](Cc1ccc(O)cc1)C(=O)N[C@@H](CCCCN)C(=O)N[C@@H](CO)C(=O)NCC(=O)N[C@@H](CCCCN)C(=O)N2 [CboK1] (H-NVACVHRTCDSNCKRNGYKSGKCINRKCNCYPH-OH; disulfide 4-23, 9-28, 13-30)
- effect on Kv1.2 currents (hKv1.2; 100 nM toxin): totally insensitive; also recorded: did not show any effect
- Kd (hKv1.2; this study, CboK1 tested at 100 nM, read-out: Kd Values Kv1.2 (symbol)): > 100 nM
- effect on Kv1.1 currents (hKv1.1; 100 nM toxin): did not show any effect
- Kd (hKv1.1; this study, screened at 100 nM, read-out: Kd Values Kv1.1 (symbol)): > 100 nM
- effect on Kv1.3 currents (Kv1.3; 100 nM toxin): did not show any effect
- inhibition of Kv1.3 currents (Kv1.3; 100 nM toxin, equilibrium block, screening summary (Figure 4F), n ≥ 3): less than 4%
- Kd (Kv1.3; this study, screened at 100 nM, read-out: Kd Values Kv1.3 (symbol)): > 100 nM

SMILES: CC[C@H](C)[C@H](NC(=O)[C@@H](N)[C@@H](C)O)C(=O)N[C@H](C(=O)N[C@@H](CC(N)=O)C(=O)N[C@H](C(=O)N[C@@H](CCCCN)C(=O)N[C@H]1CSSC[C@@H]2NC(=O)[C@H](CCCCN)NC(=O)[C@H](CCC(=O)O)NC(=O)CNC(=O)[C@H](C)NC(=O)[C@H](Cc3c[nH]cn3)NC(=O)[C@@H]3CCCN3C(=O)CNC(=O)[C@H](Cc3ccc(O)cc3)NC(=O)[C@H](CC(C)C)NC(=O)[C@H](CC(=O)O)NC(=O)[C@H](CCCCN)NC(=O)[C@@H]3CSSC[C@@H](C(=O)N[C@@H](Cc4ccc(O)cc4)C(=O)N[C@@H](CCCCN)C(=O)N[C@H](C(=O)O)C(C)C)NC(=O)[C@H](CCCCN)NC(=O)[C@H](CSSC[C@H](NC(=O)[C@H](CCC(N)=O)NC(=O)[C@H](CCCCN)NC(=O)[C@@H]4CCCN4C(=O)[C@H](CO)NC(=O)[C@H]([C@@H](C)O)NC1=O)C(=O)N[C@@H](CC(C)C)C(=O)N[C@@H](CCCCN)C(=O)N1CCC[C@H]1C(=O)N3)NC(=O)[C@H](CCCCN)NC(=O)CNC(=O)[C@H](CC(N)=O)NC(=O)[C@H](CCSC)NC2=O)C(C)C)[C@@H](C)CC [CboK3] (H-TIINVKCTSPKQCLKPCKDLYGPHAGEKCMNGKCKCYKV-OH; disulfide 7-29, 13-34, 17-36)
- Hill coefficient H, Kv1.2 block (hKv1.2; [1]): 1.2
- time for onset of steady-state block and complete recovery, Kv1.3 (Kv1.3; 5, 15, 40, 100, 350 nM toxin): ~ 1 min
- Hill coefficient H, Kv1.3 block (Kv1.3; n ≥ 3): 0.96
- reversibility of Kv1.3 block (Kv1.3; wash with toxin-free external solution): fully reversible

SMILES: CC[C@H](C)[C@H](NC(=O)[C@H](Cc1ccccc1)NC(=O)[C@@H](N)[C@@H](C)O)C(=O)N[C@@H](CC(N)=O)C(=O)N[C@H](C(=O)N[C@@H](CCCCN)C(=O)N[C@H]1CSSC[C@@H]2NC(=O)[C@H](CCCCN)NC(=O)[C@H](CCC(=O)O)NC(=O)CNC(=O)[C@H](C)NC(=O)[C@H](Cc3c[nH]cn3)NC(=O)[C@@H]3CCCN3C(=O)CNC(=O)[C@H](Cc3ccc(O)cc3)NC(=O)[C@H](CC(C)C)NC(=O)[C@H](CC(=O)O)NC(=O)[C@H](CCCCN)NC(=O)[C@@H]3CSSC[C@@H](C(=O)N[C@@H](Cc4ccc(O)cc4)C(=O)N[C@@H](CCCCN)C(=O)N4CCC[C@H]4C(=O)O)NC(=O)[C@H](CCCCN)NC(=O)[C@H](CSSC[C@H](NC(=O)[C@H](CCC(N)=O)NC(=O)[C@H](CCCCN)NC(=O)[C@@H]4CCCN4C(=O)[C@H](CO)NC(=O)[C@H]([C@@H](C)O)NC1=O)C(=O)N[C@@H](CC(C)C)C(=O)N[C@@H](CCCCN)C(=O)N1CCC[C@H]1C(=O)N3)NC(=O)[C@H](CCCCN)NC(=O)CNC(=O)[C@H](CC(N)=O)NC(=O)[C@H](CCSC)NC2=O)C(C)C [CboK4] (H-TFINVKCTSPKQCLKPCKDLYGPHAGEKCMNGKCKCYKP-OH; disulfide 7-29, 13-34, 17-36 (inferred); N-terminus and C-terminus assumed)
- Kd (hKv1.2; Hill fit of RCF vs toxin concentration, cumulative application, equilibrium block, pulses to +50 mV from -120 mV, n ≥ 3, read-out: Kd for Kv1.2): 0.125 nM
- Hill coefficient H, Kv1.2 block (hKv1.2; [1]): 1.0
- inhibition of Kv1.1 currents (hKv1.1; 100 nM toxin, equilibrium block, screening summary (Figure 4D), n ≥ 3): less than 10%
- Hill coefficient H, Kv1.3 block (Kv1.3; n ≥ 3): 0.94
- Kd (Kv1.3; Hill fit of isochronal RCF (current at 4 ms), 15-ms pulses to +50 mV from -120 mV, n ≥ 3, read-out: Kd for Kv1.3): 21.7 nM

SMILES: CC[C@H](C)[C@H](NC(=O)[C@H](Cc1ccccc1)NC(=O)[C@@H](N)[C@@H](C)O)C(=O)N[C@@H](CC(N)=O)C(=O)N[C@H](C(=O)N[C@@H](CCCCN)C(=O)N[C@H]1CSSC[C@@H]2NC(=O)[C@H](CCCCN)NC(=O)[C@H](CCC(=O)O)NC(=O)CNC(=O)[C@H](C)NC(=O)[C@H](Cc3c[nH]cn3)NC(=O)[C@@H]3CCCN3C(=O)CNC(=O)[C@H](Cc3ccc(O)cc3)NC(=O)[C@H](CC(C)C)NC(=O)[C@H](CC(=O)O)NC(=O)[C@H](CCCCN)NC(=O)[C@@H]3CSSC[C@@H](C(=O)N[C@@H](Cc4ccc(O)cc4)C(=O)N[C@@H](CCCCN)C(=O)N[C@H](C(=O)O)C(C)C)NC(=O)[C@H](CCCCN)NC(=O)[C@H](CSSC[C@H](NC(=O)[C@H](CCC(N)=O)NC(=O)[C@H](CCCCN)NC(=O)[C@@H]4CCCN4C(=O)[C@H](CO)NC(=O)[C@H]([C@@H](C)O)NC1=O)C(=O)N[C@@H](CC(C)C)C(=O)N[C@@H](CCCCN)C(=O)N1CCC[C@H]1C(=O)N3)NC(=O)[C@H](CCCCN)NC(=O)CNC(=O)[C@H](CC(N)=O)NC(=O)[C@H](CCSC)NC2=O)C(C)C [CboK7] (H-TFINVKCTSPKQCLKPCKDLYGPHAGEKCMNGKCKCYKV-OH; disulfide 7-29, 13-34, 17-36)
- Hill coefficient H, Kv1.2 block (hKv1.2; [1]): 1.3
- Hill coefficient H, Kv1.3 block (Kv1.3; n ≥ 3): 0.8
